Legend:
[1] = test system: endogenous fra-1; experiment: RT-PCR analysis of fra-1 transcripts in primary osteoblast cultures; type: cell-based, mice; details: wild-type osteoblasts, cultures 7 days after plating, not expressed without stimulation
Procedure: To further investigate the consequences of Fra-1 expression on osteoblasts, primary osteoblasts were prepared from the calvariae of neonatal (6-8 days old) mice and differentiated in vitro. Calvariae were sequentially digested for 10 minutes in α-MEM containing 0.1% collagenase and 0.2% dispase. Cells isolated by fractions 2 to 5 were combined as an osteoblastic cell population, expanded for 2 days in α-MEM with 10% FCS and replated at a density of 10^4 cells per cm^2. After reaching confluency, medium was supplemented with 5 mM β-glycerophosphate and 100 μg/ml ascorbic acid. There was no difference in the proliferation between wild-type and transgenic osteoblasts. The time course of differentiation was followed by ALP activity and by the deposition of mineralized extracelluar matrix. For ALP activity measurement, cells were washed with PBS and sonicated in 10 mM Tris-HCl buffer (pH 8.0). ALP activity in the lysate was measured using a calorimetric assay (Sigma). […] In transgenic cultures, areas of mineralized extracellular matrix monitored by alizarine red S staining were first observed at day 12, when no stained areas were present in wild-type cultures (FIG. 5b). […]
5′-GTACCGAGACTACGGGGAACCGG-3′ SEQ. […] Exogenous and endogenous fra-1 was detected in transgenic osteoblasts, irrespective of induction by phorbol myristate acetate (PMA) (FIG. 5c). […]

[2] = test system: Fra-1 expression; details: substance known to induce Fra-1 expression (Yoshioka et al., 1995); cited from earlier work

SMILES | expression of endogenous fra-1 upon stimulation [1] | Fra-1 expression in cultured cells [2]
CCCCCCCCCCCCCC(=O)O[C@@H]1[C@@H](C)[C@@]2(O)[C@@H](C=C(CO)C[C@]3(O)C(=O)C(C)=C[C@@H]23)[C@@H]2C(C)(C)[C@]12OC(C)=O [PMA, phorbol myristate acetate] | induced | 
CC(C)(C)c1cc(O)ccc1O [tert-butylhydroquinone] |  | induce Fra-1 expression
